This is an account of results in patent US4281009A, “Hydantoin derivatives” (Nippon Zoki Pharmaceutical Co., Ltd., priority 1978, dated 1981).

The nature of data set [1]: Acute toxicity test (LD50, Litchfield-Wilcoxon), mice. To be noted: mouse, in vivo, ip, intraperitoneal. The procedure: (§1) Toxicity tests were carried out by intraperitoneal administration of the compound of the present invention to groups each comprising 10 ICR-strain mice and SD-strain rats. LD50 was calculated by the Litchfield-Wilcoxon method based on the number of death 72 hours after the administration.

A short description of data set [2]: Acute toxicity test (LD50, Litchfield-Wilcoxon), rats. As to conditions: rat, in vivo, ip, intraperitoneal. The procedure:
as §1

Data set [3] relates to SART stress mice. Kind of data set: Inhibitory effects on increase of heart rate and elongation of QRS-time in SART stress mice. The data set is classed as in vivo, mice (dd-strain male). As to conditions: 9th day, Average ± S.D. The procedure:
SART stress animals used in the tests described below were raised according to a method of Kita, et al. [Folia Pharmacol. Japan.: 71, 195-210 (1975)].
2. Inhibitory effects on increase of heart rate and elongation of QRS-time in stress animals:
Groups of mice each comprising 11 or 12 dd-strain male mice were divided into three groups in the same manner as above and heart rate and QRS-time were determined on the 9th day after initiation of the tests.

Data set [4] has as its system dd-strain male mice. The data set can be described thus: Inhibitory effect on spontaneous motor activities (Animex method). The data set is classed as in vivo. As to conditions: after 60 minutes. The procedure: 4.1 Inhibitory effect on spontaneous motor activities:
Groups each comprising 8-16 dd-strain male mice were used. The compounds of the present invention were given intraperitoneally. After 60 minutes, spontaneous motor activities for 15 minutes were measured by the Animex method.

The subject of data set [5] is dd-strain male mice. Kind of data set: Inhibitory effect on exploratory movements. In kind it is in vivo. To be noted: 150 mg/kg intraperitoneal, after 60 minutes. The procedure:
4.2. Inhibitory effect on exploratory movements:
Groups each comprising 16-35 dd-strain male mice were used. The compounds of the present invention were given intraperitoneally. After 60 minutes, exploratory movements for 15 minutes were measured with an exploratory movement recorder by a method of Tokyo Kyoiku University.

Data set [6] concerns normal mice and SART stress mice. The data set can be described thus: Analgesic effect, tail pressure method (Randall-Selitto's device). In kind it is in vivo, mice (ddY-strain male). As to conditions: 60 minutes; for change in vivo at 100 mg/kg / change in vivo at 200 mg/kg: Mus musculus, ip, 1 h; for change in vivo at 100 mg/kg: intraperitoneal 100 mg/kg; for Analgesic effect: intraperitoneal 50 mg/kg; for change in vivo at 200 mg/kg: intraperitoneal 200 mg/kg. The procedure:
5.1 Tail pressure method:
Randall-Selitto's device for determining analgesic effect by pressure stimulation was used. […]. The compounds of the present invention or other comparative drugs were given thereto and analgesic effect was determined. The effect was judged by measuring pressure applied 60 minutes after the intraperitoneal administration of the compounds of the present invention. The pressure thus measured was divided by a pressure before the administration. The value thus obtained was compared with that of a control group (to which 10 ml./Kg of 0.5% sodium salt of carboxymethylcellulose or 0.5% Tween 80 was given). When the compounds of the present invention were given perorally and other comparative drugs were given, an average of the pressure at 30, 60, 90 and 120 minutes after the administration was employed for evaluating the effect.

The test system is the same in data set [7]. Kind of data set: Analgesic effect, acetic acid writhing method. The data set is classed as in vivo. As to conditions: Mus musculus, sc, 100 mg/Kg subcutaneously. The procedure: 5.2. Acetic acid writhing method: 0.1 ml./10 g of isotonic sodium chloride solution containing 0.7% acetic acid was given intraperitoneally to groups of mice each comprising 5 normal mice and 5 SART stress mice to which SART stress had been applied for 8 days. Writhing syndromes number appeared for 15 minutes after the administration was measured. The effect was evaluated by giving 100 mg/Kg of the compounds of the present invention or DPH subcutaneously and comparing the writhing syndromes number of the mice with that of control mice.
(In general: An intraperitoneal irritant provokes the stretching counted in writhing tests.)

Data set [8] has the same test system. Kind of data set: Analgesic effect, D'Amour-Smith method. As to conditions: Mus musculus, ip; for responders at 200 mg/kg: intraperitoneal 200 mg/kg; for responders at 100 mg/kg: intraperitoneal 100 mg/kg. In kind it is in vivo, mice (ddY-strain male). The procedure:
5.3. D'Amour-Smith method:
Groups each comprising 10 ddY-strain male normal mice and SART stress mice to which SART stress had been applied for 4 days were used. The root of the tail of the mouse to which black ink was applied was irradiated with infrared rays for up to 15 seconds. Time required till escape response was observed was measured. The effect was shown by the ratio of the mice in which an average value of the response time at 30, 60, 90 and 120 minutes after the administration of the compounds of the present invention or other comparative drugs was prolonged to at least 2 times as long as the time before the administration.

Data set [9] relates to dd-strain male mice. Kind of data set: Antiulcerogenic effect on Takagi's restraint-plus-water-immersing ulcer. The data set is classed as in vivo. To be noted: Mus musculus, ip; for inhibition in vivo at 150 mg/kg: 150 mg/kg intraperitoneal. The procedure:
6.1 Antiulcerogenic effect on Takagi's restraint-plus-water-immersing ulcer: Groups each comprising 8-26 dd-strain male mice were used. The tests were carried out according to a method of Takagi, et al. [Chem. Pharm. Bull.; 12, 465 (1964)]. Sum of length of diseased parts in the glandular stomach was measured and it was compared with that of control group. The compounds of the present invention or DPH was given intraperitoneally immediately before the restraint and immersion in water.

Data set [10] has as its system Wistar-strain male rats. The data set can be described thus: Antiulcerogenic effect on Shay's ulcer (operative ulcer). In kind it is in vivo. To be noted: 10 times. The procedure: 6.2. Antiulcerogenic effect on Shay's ulcer (operative ulcer):
Tests were carried out by using groups of rats each comprising 5-10 Wistar-strain male rats according to Shay method [Shay Harry; Gastroenterology,; 5, 43 (1945)]. Ulcers in the anterior stomach were classified on the following basis:
2. 1-5 small ulcers (diameter of less than 3 mm)
3. 6 or more small ulcers or one big ulcer (diameter of more than 3 mm)
4. two or more big ulcers

The subject of data set [11] is ddY-strain male mice. The data set can be described thus: Effect of prolongation of sleeping time (hexobarbital). In kind it is in vivo. To be noted: for change in vivo at 100 mg/kg / change in vivo at 300 mg/kg: Mus musculus, ip; for change in vivo at 100 mg/kg: 100 mg/kg intraperitoneal; for change in vivo at 300 mg/kg: 300 mg/kg intraperitoneal. The procedure:
7. Effect of prolongation of sleeping time:
Groups of mice each comprising 10 ddY-strain male mice were used. Sodium salt of hexobarbital was given intraperitoneally. Thereafter, the period of time in which righting reflex disappeared was measured. The effect was evaluated on the basis of prolongation of time of disappearance of righting reflex by the intraperitoneal administration of the compounds of the present invention as compared with control mice.

For data set [12], the system named is dd-strain male mice. Kind of data set: Inhibitory effect on Tremorine-induced tremor. In kind it is in vivo. As to conditions: tremorine 10 mg/Kg. The procedure:
9. Inhibitory effect on Tremorine-induced tremor:
Groups of mice each comprising 10-40 dd-strain male mice were used. Effect of the compounds of the present invention on tremor caused by tremorine was examined. The compounds of the present invention or DPH was given intraperitoneally. 45 minutes thereafter, 10 mg/Kg of tremorine was given intraperitoneally for inducing the tremor.

The subject of data set [13] is normal rats and SART stress rats. The data set can be described thus: Analgesic effect, pain induced by Bradykinin. The data set is classed as in vivo, rats (SD-strain male). To be noted: intraperitoneal 100 mg/kg. The procedure: 5.4 Method of measuring a pain induced by Bradykinin:
Groups each comprising 4-8 SD-strain male normal rats and SART stress rats to which SART stress had been applied for 4 days were used. The tests were carried out according to the method of Deffenu et al. [Deffenu, G., Pegrassi, L., & Fumachi. B.; J. Pharm. Pharmacol.; 18, 135 (1966)] and Blane method [Blane, G. F.; J. Pharm. Pharmacol.; 19, 367 (1967)]. The effect judged was shown by ratio of the rats in which the effect was recognized according to the method of Abe, et al. [Abe, Kaneko & Takagi; Folia Pharmacol. Japon.; 67, 9-14 (1971)].

With `O=C1NC(=O)C(c2ccc(O)cc2)(c2cccs2)N1` (centres unmarked) [Compound 1, 5-(4-Hydroxyphenyl)-5-(2-thienyl)hydantoin], the LD50 (in general, the dose expected to kill half of the subjects tested) at 72 h in data set [1] (female) was 2000 to 3000 mg/kg; in [1] (male), over 3000 mg/kg; in data set [2] (female), over 3000 mg/kg; in [2] (male) it was over 3000 mg/kg. In data set [3] (100 mg/kg/day), this compound showed a Heart rate of 741 ± 39 min⁻¹. Also, the QRS-time in data set [3] (100 mg/kg/day) was 13.9 ± 0.8 1/1000 sec. Further, the “Inhibitory effect on spontaneous motor activities” value was 22.4% in data set [4] (50 mg/kg intraperitoneal) and 30.7% in data set [4] (150 mg/kg intraperitoneal). For the same compound, in data set [5], the “Inhibitory effect on exploratory movements” value came to 33.2%. For the same compound, the figures for the change in vivo at 100 mg/kg in data set [6] (SART stress mice), in [6] (normal mice) and in [11] were 82.3%, 26.9% and 36.9%, respectively. The results for the inhibition in vivo at 100 mg/kg in [7] (SART stress mice) and in [7] (normal mice) were 20.9% and 2.4%, respectively. Besides, the results for the responders at 200 mg/kg in [8] (SART stress mice) and in data set [8] (normal mice) were 30% and 20%, respectively. For the same compound, the inhibition in vivo (commonly the share of the control response that was lost under treatment) at 150 mg/kg in [9] worked out at 30.6%. The “Antiulcerogenic effect on Shay's ulcer (operative ulcer)” value (from here on “Antiulcerogenic effect on Shay's ulcer”) in [10] (100 mg/kg intraperitoneal) was found to be 14.6%; in data set [10] (150 mg/kg intraperitoneal), 26.5%. In addition, in [12] (150 mg/kg intraperitoneal), the “Inhibitory effect on Tremorine-induced tremor” value was determined as 33%.

Take `O=C1NC(=O)C(c2ccccc2)(c2ccc(O)cc2)N1` (centres unmarked) [Compound 7, 5-(4-Hydroxyphenyl)-5-phenylhydantoin]: the LD50 at 72 h in [1] (female), in data set [1] (male), in data set [2] (female) and in data set [2] (male) was over 5000 mg/kg each time. This compound also had a Heart rate in data set [3] (50 mg/kg/day) of 690 ± 56 min⁻¹. The QRS-time in data set [3] (50 mg/kg/day) is 12.6 ± 1.5 1/1000 sec. Further, the results for the change in vivo at 100 mg/kg in data set [6] (SART stress mice), in data set [6] (normal mice) and in data set [11] were 106%, 38.1% and 112%, respectively. The Analgesic effect in data set [6] (SART stress mice) came out at 76.5%; in data set [6] (normal mice), 31.5%; in [13] (SART stress rats), 66.7%; in [13] (normal rats), 50%. The inhibition in vivo at 100 mg/kg in data set [7] (SART stress mice) turned out to be 31.3%; in data set [7] (normal mice), 3.8%. The responders at 100 mg/kg was 50% in data set [8] (SART stress mice) and 40% in data set [8] (normal mice). Moreover, the “Effect of prolongation of sleeping time” value worked out at 48.0% in data set [11] (20 mg/kg intraperitoneal) and 101.7% in data set [11] (50 mg/kg intraperitoneal). Further, the “Inhibitory effect on Tremorine-induced tremor” value in [12] (100 mg/kg intraperitoneal) worked out at 35%.

`CCC1(c2ccc(O)cc2)NC(=O)NC1=O` (centres unmarked) [Compound 24, 5-Ethyl-5-(4-hydroxyphenyl)hydantoin]: the LD50 at 72 h in data set [1] (female), in data set [1] (male), in data set [2] (female) and in [2] (male) was over 5000 mg/kg throughout. The compound further registered a Heart rate in [3] (100 mg/kg/day) of 729 ± 58 min⁻¹. For the same compound, in data set [3] (100 mg/kg/day), the QRS-time is on record as 13.3 ± 0.9 1/1000 sec. In addition, the change in vivo at 200 mg/kg in data set [6] (SART stress mice) was found to be 31.2%; in data set [6] (normal mice), 20.4%. Moreover, the Analgesic effect is on record as 50% in [13] (SART stress rats) and 20% in data set [13] (normal rats). Besides, in data set [9] (75 mg/kg intraperitoneal), the inhibition in vivo at 75 mg/kg was found to be 11.9%. In [9] (125 mg/kg intraperitoneal), the inhibition in vivo at 125 mg/kg came out at 27.5%. Also, the “Antiulcerogenic effect on Shay's ulcer” value was 17.5% in [10] (50 mg/kg intraperitoneal) and 32.2% in data set [10] (100 mg/kg intraperitoneal). Also, the “Effect of prolongation of sleeping time” value in data set [11] (50 mg/kg intraperitoneal) is reported as 42.1%. In [11], this compound had a change in vivo at 100 mg/kg of 54.4%. In data set [11], this compound had a change in vivo at 300 mg/kg of 84.4%. In addition, in data set [12] (150 mg/kg intraperitoneal), the “Inhibitory effect on Tremorine-induced tremor” value was 40%.

Take `O=C1NC(=O)C(c2ccc(O)cc2)(c2ccc(O)c(Cl)c2)N1` (centres unmarked) [Compound 33, 5-(3-Chloro-4-hydroxyphenyl)-5-(4-hydroxyphenyl)hydantoin]: the LD50 at 72 h in data set [1] (female), in [1] (male), in data set [2] (female) and in data set [2] (male) was over 5000 mg/kg throughout. For the same compound, the figures for the change in vivo at 100 mg/kg in data set [6] (SART stress mice), in [6] (normal mice) and in data set [11] were 69.8%, 29.5% and 24.2%, respectively. The figures for the responders at 100 mg/kg in [8] (SART stress mice) and in [8] (normal mice) were 30% and 20%, respectively. In addition, the inhibition in vivo at 150 mg/kg in data set [9] is 29.8%. In addition, the “Antiulcerogenic effect on Shay's ulcer” value in data set [10] (150 mg/kg intraperitoneal) was found to be 54.2%. Also, in [11], the change in vivo at 300 mg/kg was determined as 32.9%. In addition, in data set [12] (100 mg/kg intraperitoneal), the “Inhibitory effect on Tremorine-induced tremor” value is 29%.
